Test results: US8648011B2, “Herbicidal compositions” (Syngenta Crop Protection LLC, priority 2009, dated 2014)

Test system: maize
Assay: Glass house test of safening effect on herbicide A, post-emergence application, phytotoxicity in maize
Type: in vivo
Settings: for Phytotoxicity (%): post-emergence, maize, 24 DAA
Method: A glass house test was carried out to determine the safening effect of numerous safeners on a compound of Formula (I) with respect to maize. Various herbicidal compositions were applied post-emergence and the observed phytotoxicity in maize assessed 24 days after application (24DAA). A=2-chloro-5-[3,6-dihydro-3-methyl-2,6-dioxo-4-(trifluoromethyl)-1(2H)-pyrimidinyl]-4-fluoro-N-[[methyl(1-methylethyl)amino]sulfonyl]benzamide; B=1-[4-(N-2-methoxybenzoylsulfamoyl)phenyl]-3-methylurea.

[1] = safener 100 g/ha applied with herbicide A 100 g/ha
[2] = safener 250 g/ha applied with herbicide A 250 g/ha

SMILES	Phytotoxicity (%) (herbicide A 100 g/ha, no safener)	Phytotoxicity (%) (herbicide A 250 g/ha, no safener)	safening of the 3-phenyluracil herbicide A in maize (in vivo)	Phytotoxicity (%) [1] [%]	Phytotoxicity (%) [2] [%]
CC(C)N(C)S(=O)(=O)NC(=O)c1cc(-n2c(=O)cc(C(F)(F)F)n(C)c2=O)c(F)cc1Cl [A, 2-chloro-5-[3,6-dihydro-3-methyl-2,6-dioxo-4-(trifluoromethyl)-1(2H)-pyrimidinyl]-4-fluoro-N-[[methyl(1-methylethyl)amino]sulfonyl]benzamide]	25	35	–	–	–
CNC(=O)Nc1ccc(S(=O)(=O)NC(=O)c2ccccc2OC)cc1 [B, 1-[4-(N-2-methoxybenzoylsulfamoyl)phenyl]-3-methylurea]	–	–	surprisingly good safening	–	–
O=C(O)COc1ccc(Cl)c2cccnc12 [Cloquintocet]	–	–	–	25	35
O=C(O)C1=NOC(c2ccccc2)(c2ccccc2)C1 [Isoxadifen]	–	–	–	28	30
CC1(C(=O)O)CC(C(=O)O)=NN1c1ccc(Cl)cc1Cl (stereo not drawn) [Mefenpyr]	–	–	–	30	40
